Tests used:
[1] = rat, in vivo
Protocol: Methods: Rats were given an i.p. injection of XA 50 mg/kg and then sacrificed 30 minutes later by microwave irradiation. Brains were dissected and XA was assayed in 20 different regions of the brain.

[2] = system: extracellular dopamine release in the PFC; experiment: Microdialysis of dopamine, DOPAC and HVA in PFC after local XA; conditions: rat, in vivo
Protocol: • Animals: Adult male Wistar rats weighing 250 to 275 g were housed in pairs in plastic cages with a standard 7 a.m.–7 p.m. light cycle and free access to food and water. Animals studies were conducted in accordance with the requirements of the EEC directive of 24 Nov. 1986 (86/609/EEC). • Chemicals: XA, 6-OHDA hydrobromide, 2,4,5-trihydroxyphenylethylamine and desipramine were purchased from Sigma. NCS-486 was produced by the Laboratoire de Pharmacochimie of the CNRS in Strasbourg. • Surgical protocol: An L-shaped cannula with 4 mm tip (CMA 12, Carnegie, Sweden) was used for the experiments. The dialysis membrane, 500 μm in diameter, was made of polycarbonate-polyether with a 20 Kda cutoff. The probe guide was implanted in the PFC under stereotactic guidance. Animals were anesthetized with ketamine hydrochloride (150 mg/kg i.p.)
The experiments were carried out in conscious rats with and without induced lesions, 24 to 48 hours after surgical insertion of the microdialysis probe. The composition of the microdialysis medium was as follows: 147 mM NaCl; 1.2 mM CaCl2; 1.2 mM MgCl2; 4.0 mM KCl, pH 6.5. The dialysis rate was 1 μl/min (CMA 100 pump, Carnegie). Dialysates were collected in 20 minute fractions and stored immediately in liquid nitrogen pending analysis.
These compounds were analyzed by HPLC with electrochemical detection. The chromatographic system consisted of a 25 cm×4.6 mm C18 column maintained at a constant temperature of 30° C. The mobile phase was 50 mM NaH2PO4 containing 0.1 mM EDTA and 6% methanol, the pH of the solution was adjusted to 4.85.
Retrodialyzed XA concentrations were respectively 1 μM (black circles), 5 μM (black squares) and 20 μM (black triangles). XA was applied during a 20 minute dialysis. The results are expressed as the percentage of mean baseline dopamine release (determined on eight 20-min dialysis fractions prior to stimulation by XA) (FIG. 20).

[3] = system: Grp 94 and calreticulin expression; conditions: cited from earlier work
rat [4] = conditions: in vivo; cited from earlier work
XA transport system = experiment: XA transport in differentiated NCB-20 cells; assay type: cell-based
Protocol: The cell culture was prepared by using a culture dish of NCB-20 cells at 80% confluence. The culture medium was removed and replaced with 10 ml of DMEM supplemented with 10% FCS. Cells were then detached and suspended by repeated passage of the medium through a 2 mm gauge needle. Cells were then counted in a hemocytometer. The final suspension was adjusted to a cell density of 3.10^4 cells/ml in DMEM medium supplemented with 10% FCS and 1 mM cAMP. Petri dishes were seeded with 2 ml of this suspension and incubated at 37° C. in a moisture-saturated CO2 atmosphere. Cells were used four days after inoculation.
The culture medium of 4-day NCB-20 cell cultures differentiated in cAMP was replaced by one of the buffer solutions described hereinabove (Krebs with or without Na^+, to respectively evaluate Na^+-dependent active transport and passive transport, which occurs mainly through diffusion) according to the type of experiment planned. Culture dishes were placed in a water bath at 37° C. for 10 minutes. The buffer was then replaced by the same buffer solution containing [^3H]-XA and XA at concentrations ranging from […]. [^3H]-XA was present at very low concentration and served only as a tracer of the cold (non-radiolabelled) XA. After 1 minute of incubation, the solutions were aspirated and the cells washed three times for 10 seconds with 1 ml of the same buffer (Krebs with or without Na^+), kept on ice. Active transport requires energy (ATP) and is markedly slowed at temperatures below 37° C. The washed cell layer was frozen in dishes then, the next day, distilled water was added to obtain a solution of cellular debris containing the intracellular radiolabel ([^3H]-XA). Freezing facilitated homogenization by repeated passage of the solution through a pipette. A 900 μl aliquot was added to scintillation fluid (Rotiszint®, 4 ml). The remainder of the solution was sampled to assay protein by the BCA method (Uptima). The radioactivity measured in the scintillation counter was converted by means of a suitable calibration curve into picomoles of XA taken up by the cells per mg of protein.
For each incubation time, transport was measured on nine dishes of NCB-20 cells with Na^+ and without Na^+. Ten different time points were studied: 0-10-30 seconds and 1, 2, 3, 5, 8, 10, 12 minutes. Four different experiments were carried out.
For each XA concentration, XA transport was measured on nine dishes of NCB-20 cells with Na^+ and nine dishes without Na^+. Seven different concentrations were tested: 1-5-12.5-25-50-100-200 μM. Four independent experiments were carried out.
Four milliliters of scintillator were added to the tubes containing 900 μl of the cell suspension obtained. The control tube contained 900 μl of doubly-distilled water, and the tubes used to measure specific activity contained 10 μl of the radioactive solutions used as reagent during the experiment and 890 μl of doubly-distilled water. The tubes were closed, vortexed and left overnight at 4° C. before being counted in the scintillation counter. This count measures intracellular radioactivity which is directly proportional to the quantity of XA that entered the cell through passive or active transport. To calculate the amount of active transport, passive transport (Krebs without Na^+) is simply subtracted from total transport (Krebs with Na^+).
Other endogenous molecules which might be transported by the XA transporter were tested. […] The results are shown in the histogram in FIG. 34 as the percentage entering the cells relative to transport in the presence of radiolabelled XA alone (=100%).

rat [5] = conditions: in vivo; cited from earlier work; remark: listed apart in the source

Structure (SMILES): O=C(O)c1cc(O)c2cccc(O)c2n1 [XA, xanthurenic acid]
- Brain regions where XA accumulated [1]: accumulated primarily in the frontal and prefrontal cortex (PFC), temporal and parietal cortex, amygdala, dopaminergic nuclei and in the striatum
- DOPAC release in PFC [2]: decreased slightly
- HVA release in PFC [2]: decreased slightly
- effect on dopamine release in PFC [2]: had no effect on dopamine release
- increase of extracellular dopamine release in PFC [2]: approximately 250%
- expression of Grp 94 and of calreticulin [3]: induces an increase in the expression
- xanthurenic acid concentrations required to produce these effects [3]: in the millimolar range
- ECG (rat [4]): does not modify the ECG
- increase of transport in the presence of sodium (XA transport system): about 20%
- Km (XA transport system; read-out: Km of intracellular transport): 105 µM
- analgesic effect in hotplate and tail flick tests (rat [5]): analgesic effect

From US7122326B2 (Universite Louis Pasteur, priority 2001, dated 2006)
